Measurements reported in ChEMBL document CHEMBL1132018, “Design and synthesis of thiol containing inhibitors of matrix metalloproteinases” (Bioorg Med Chem Lett, 1999).

Tests used:
[1] = target: T1, Interstitial collagenase (Homo sapiens, UniProt P03956); test: In vitro inhibitory activity against matrix metalloprotease 1
T1 sequence (P03956 whole entry): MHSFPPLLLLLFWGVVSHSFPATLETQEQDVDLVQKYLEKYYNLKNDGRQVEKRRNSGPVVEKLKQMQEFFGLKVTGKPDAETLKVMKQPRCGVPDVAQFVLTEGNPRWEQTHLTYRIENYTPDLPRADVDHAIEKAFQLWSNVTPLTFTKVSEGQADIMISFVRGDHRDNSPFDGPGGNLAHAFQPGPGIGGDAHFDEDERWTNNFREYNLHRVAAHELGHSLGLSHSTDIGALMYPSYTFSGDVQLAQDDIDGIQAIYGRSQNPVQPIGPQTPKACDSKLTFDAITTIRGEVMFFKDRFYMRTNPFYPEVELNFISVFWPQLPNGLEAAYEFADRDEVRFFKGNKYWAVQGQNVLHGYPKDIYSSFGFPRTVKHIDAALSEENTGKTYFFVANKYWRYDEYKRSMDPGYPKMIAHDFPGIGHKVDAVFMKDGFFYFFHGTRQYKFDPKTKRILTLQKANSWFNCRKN

[2] = target: Matrix metalloproteinase-9 (Rattus norvegicus, UniProt P50282); test: In vitro inhibitory activity against matrix metalloprotease-9
[3] = tested on: Rattus norvegicus; test: Drug level in plasma was determined 2 hours after administration to 2 rats orally at 75 umol/kg; type: functional, organism-based
[4] = tested on: Rattus norvegicus; test: Drug level in plasma was determined 4 hours after administration to 2 rats orally at 75 umol/kg; type: functional, organism-based
[5] = tested on: Rattus norvegicus; test: Drug level in plasma was determined 4 hours after administration to 3 rats orally at 75 umol/kg; type: functional, organism-based
[6] = tested on: Rattus norvegicus; test: Drug level in plasma was determined 2 hours after administration to 3 rats orally at 75 umol/kg; type: functional, organism-based
[7] = target: T1, Interstitial collagenase; test: Inhibition of matrix metalloprotease 1 (MMP 1)

Matrix metalloproteinase-9, sequence (P50282 whole entry): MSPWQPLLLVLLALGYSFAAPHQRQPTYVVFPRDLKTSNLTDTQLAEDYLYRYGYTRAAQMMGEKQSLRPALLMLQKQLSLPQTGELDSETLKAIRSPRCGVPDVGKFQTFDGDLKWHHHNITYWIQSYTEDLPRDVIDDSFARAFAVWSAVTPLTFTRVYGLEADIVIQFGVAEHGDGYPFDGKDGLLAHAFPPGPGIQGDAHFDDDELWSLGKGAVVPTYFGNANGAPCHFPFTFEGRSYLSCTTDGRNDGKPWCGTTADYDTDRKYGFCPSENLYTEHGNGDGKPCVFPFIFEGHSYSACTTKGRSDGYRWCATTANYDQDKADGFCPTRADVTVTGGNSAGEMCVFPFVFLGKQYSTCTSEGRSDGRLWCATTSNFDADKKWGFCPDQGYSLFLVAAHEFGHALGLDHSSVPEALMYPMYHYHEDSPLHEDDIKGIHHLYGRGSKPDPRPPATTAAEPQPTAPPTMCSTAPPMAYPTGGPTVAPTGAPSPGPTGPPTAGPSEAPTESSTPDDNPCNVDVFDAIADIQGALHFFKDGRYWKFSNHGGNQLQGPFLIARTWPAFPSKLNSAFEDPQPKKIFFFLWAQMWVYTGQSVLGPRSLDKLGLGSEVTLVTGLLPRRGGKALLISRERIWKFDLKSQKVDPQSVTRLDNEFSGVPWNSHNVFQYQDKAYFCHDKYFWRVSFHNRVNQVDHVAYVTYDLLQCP

Row | IC50 [1] [nM] | IC50 [2] [nM] | SMILES | also measured
1 | 739 | 14 | CCO[C@H]1CC[C@@](CS)(C(=O)N[C@@H](Cc2ccc(O)cc2)C(=O)Nc2ccccc2)CC1 | –
2 | 561 | 24 | CCO[C@H]1CC[C@@](CS)(C(=O)N[C@@H](Cc2ccccc2)C(=O)NC2CCCC2)CC1 | –
3 | 700 | 18 | CCO[C@H]1CC[C@@](CS)(C(=O)N[C@@H](Cc2ccccc2)C(=O)NC)CC1 | –
4 | 669 | 108 | CNC(=O)[C@H](Cc1ccccc1)NC(=O)[C@]1(CS)CC[C@H](C(F)(F)F)CC1 | –
5 | 6030 | 630 | CCCO[C@H]1CC[C@@](CS)(C(=O)N[C@@H](Cc2ccccc2)C(=O)NC)CC1 | –
6 | 1270 | 46 | CCO[C@H]1CC[C@@](CS)(C(=O)N[C@@H](Cc2ccccc2)C(=O)Nc2ccc(OC)cc2)CC1 | –
7 | 1220 | 49 | CCO[C@H]1CC[C@@](CS)(C(=O)N[C@@H](Cc2ccccc2)C(=O)Nc2ccccc2)CC1 (stereo in doubt; 13) | –
8 | 564 | 21 | CCO[C@H]1CC[C@@](CS)(C(=O)N[C@@H](Cc2cccnc2)C(=O)Nc2ccccc2)CC1 | –
9 | 3470 | 121 | CCO[C@H]1CC[C@@](CS)(C(=O)N[C@@H](Cc2ccccc2)C(=O)Nc2ccccn2)CC1 | –
10 | 135 | 17 | CCO[C@H]1CC[C@@](CS)(C(=O)N[C@@H](Cc2ccccc2)C(=O)Nc2cccnc2)CC1 | Plasma concentration [3]: 253 nM; Plasma concentration [4]: 289 nM
11 | > 10000 | 81 | CCO[C@H]1CC[C@@](CS)(C(=O)N[C@@H](Cc2ccccc2)C(=O)Nc2ccc(OC(F)(F)F)cc2)CC1 | –
12 | 953 | 42 | CCO[C@H]1CC[C@@](CS)(C(=O)N[C@@H](Cc2cccs2)C(=O)Nc2ccccc2)CC1 | –
13 | 2930 | 79 | CCO[C@H]1CC[C@@](CS)(C(=O)N[C@@H](Cc2ccccc2)C(=O)NC2CCCCC2)CC1 | –
14 | 2150 | 52 | CCO[C@H]1CC[C@@](CS)(C(=O)N[C@@H](Cc2ccccc2)C(=O)Nc2ccc(F)cc2)CC1 | –
15 | – | > 10000 | CCO[C@H]1CC[C@@](CS)(C(=O)N[C@@H](Cc2ccccc2)C(=O)Nc2ccccc2)CC1 (stereo in doubt; 14) | –
16 | 1940 | 66 | CCO[C@H]1CC[C@@](CS)(C(=O)N[C@@H](Cc2ccc(Cl)cc2)C(=O)Nc2ccccc2)CC1 | –
17 | 5030 | 350 | CNC(=O)[C@H](Cc1ccccc1)NC(=O)C1(CS)CCCCC1 | –
18 | – | > 10000 | CNC(=O)[C@H](Cc1ccccc1)NC(=O)[C@]1(CS)CC[C@H](C(C)(C)C)CC1 | –
19 | – | > 10000 | CCC[C@H]1CC[C@@](CS)(C(=O)N[C@@H](Cc2ccccc2)C(=O)NC)CC1 | –
20 | 110 | 35 | CNC(=O)[C@H](Cc1ccccc1)NC(=O)[C@]1(CS)CC[C@H](OC)CC1 | –
21 | 823 | 26 | CCO[C@H]1CC[C@@](CS)(C(=O)N[C@@H](Cc2ccccc2)C(=O)NCc2ccccc2)CC1 | Plasma concentration [5]: 491 nM; Plasma concentration [6]: 837 nM
22 | – | 20 | CCO[C@H]1CC[C@@](CS)(C(=O)N[C@@H](Cc2ccc(OC)cc2)C(=O)Nc2ccccc2)CC1 | IC50 [7]: 1060 nM
23 | 5910 | 79 | CCO[C@H]1CC[C@@](CS)(C(=O)N[C@@H](Cc2ccccc2)C(=O)Nc2ccc(Cl)cc2)CC1 | –
24 | 6260 | 83 | CCO[C@H]1CC[C@@](CS)(C(=O)N[C@@H](Cc2ccc(F)cc2)C(=O)Nc2ccccc2)CC1 | –
25 | 680 | 40 | CCO[C@H]1CC[C@@](CS)(C(=O)N[C@@H](Cc2ccccc2)C(=O)NC(C)C)CC1 | –
26 | 1330 | 63 | CCO[C@H]1CC[C@@](CS)(C(=O)N[C@@H](Cc2ccccc2)C(=O)Nc2ccc(N(C)C)cc2)CC1 | –
27 | – | > 10000 | CNC(=O)[C@H](Cc1ccccc1)NC(=O)[C@@]1(CS)CCCC(OC)C1 (stereo partly specified) | –
28 | 3270 | 34 | CCOc1ccc(C[C@H](NC(=O)[C@]2(CS)CC[C@H](OCC)CC2)C(=O)Nc2ccccc2)cc1 | –
